Reference: patent US20260021055A1, “Asymmetric Piperazine-Based Cationic Lipids” (TRANSLATE BIO, INC., priority 2022, published 2026)

Test system: hEPO protein produced in the serum
Test: Delivery of human erythropoietin (hEPO) mRNA by intramuscular administration; hEPO protein in serum by ELISA
Format: in vivo, Mice
Settings: for in vivo protein production (hEPO protein) after delivery of hEPO mRNA: lipid nanoparticles comprising the compound, FIG. 1; for effectiveness in delivering hEPO mRNA compared with control cationic lipid: mice, intramuscular, lipid nanoparticles comprising the lipid, FIG. 1 and Table F
Method: For the hEPO animal dosing studies, the lipid nanoparticles (LNPs) are diluted to […] in 10% trehalose. Mice are dosed intramuscularly (IM) with 0.1 μg in 30 μL volume into right gastrocnemius muscle on the leg of the mouse. Blood samples are collected 6 hours and 24 hours post injection to measure the amount of hEPO protein produced in the serum. The hEPO protein amounts are detected using an ELISA assay from commercially available kits. Lipid nanoparticle formulations described in Table D above encapsulating hEPO mRNA were prepared by Process A as described above for intramuscular (IM) administration in accordance with the above procedure.

CCCCCCCC/C=C\CCCCCCC(O)CN(CCCCSSCCCCN1CC(C)N(CCOC(=O)CCCN(CC(O)CCCCCCCCCC)CC(O)CCCCCCCCCC)CC1C)CC(O)CCCCCC/C=C\CCCCCCCC (stereo not shown) [Compound C1] was tested, and the “in vivo protein production (hEPO protein) after delivery of hEPO mRNA” value was “high levels of in vivo protein production” and the “effectiveness in delivering hEPO mRNA compared with control cationic lipid” value was “more effective in delivering hEPO mRNA than the control cationic lipid DLin-MC3-DMA”.
With CCCCCCCC/C=C\CCCCCCC(O)CN(CCCCSSCCCN1CC(C)N(CCOC(=O)CCCN(CC(O)CCCCCCCCCC)CC(O)CCCCCCCCCC)CC1C)CC(O)CCCCCC/C=C\CCCCCCCC (stereo not shown) [Compound B1] the “in vivo protein production (hEPO protein) after delivery of hEPO mRNA” value was “high levels of in vivo protein production” and the “effectiveness in delivering hEPO mRNA compared with control cationic lipid” value was “more effective in delivering hEPO mRNA than the control cationic lipid DLin-MC3-DMA”.
